From ChEMBL document CHEMBL4390652, “Design, biological evaluation and X-ray crystallography of nanomolar multifunctional ligands targeting simultaneously acetylcholinesterase and glycogen synthase kinase-3” (Eur J Med Chem, 2019)

Columns and labels:
PC-3 = assay: Cytotoxicity against human PC3 cells assessed as growth inhibition incubated for 48 hrs by Hoechst 33342 staining based assay; type: cell-based; settings: PC-3, 48 h
[1] = biological target: Cyclin-dependent kinase 4/cyclin D1 (Homo sapiens) (UniProt P11802+P24385); assay: Binding affinity to wild-type human full length CDK4/cyclinD1 (M1 to E303 residues) expressed in mammalian expression system assessed as residual binding level at 10 uM by Kinomescan method relative to control
[2] = biological target: Citron Rho-interacting kinase (Homo sapiens) (UniProt O14578); assay: Binding affinity to wild-type human partial length CIT (M68 to E432 residues) expressed in bacterial expression system assessed as residual binding level at 10 uM by Kinomescan method relative to control
[3] = biological target: Dual specificity protein kinase CLK2 (Homo sapiens) (UniProt P49760); assay: Binding affinity to wild-type human partial length CLK2 (D144 to R498 residues) expressed in bacterial expression system assessed as residual binding level at 10 uM by Kinomescan method relative to control
[4] = biological target: Megakaryocyte-associated tyrosine-protein kinase (Homo sapiens) (UniProt P42679); assay: Binding affinity to wild-type human full length CTK (M43 to P508 residues) expressed in mammalian expression system assessed as residual binding level at 10 uM by Kinomescan method relative to control
[5] = test system: Epidermal growth factor receptor (Homo sapiens), P00533 [L858R]; assay: Binding affinity to human partial length EGFR L858R mutant (R669 to V1011 residues) expressed in bacterial expression system assessed as residual binding level at 10 uM by Kinomescan method relative to control
[6] = biological target: Ephrin type-A receptor 4 (Homo sapiens) (UniProt P54764); assay: Binding affinity to wild-type human partial length EPHA4 (T601 to R897 residues) expressed in bacterial expression system assessed as residual binding level at 10 uM by Kinomescan method relative to control
[7] = biological target: Mitogen-activated protein kinase 7 (Homo sapiens) (UniProt Q13164); assay: Binding affinity to wild-type human partial length ERK5 (M1 to A409 residues) expressed in bacterial expression system assessed as residual binding level at 10 uM by Kinomescan method relative to control
[8] = test system: Receptor-type tyrosine-protein kinase FLT3 (Homo sapiens), P36888 [K663Q]; assay: Binding affinity to human partial length FLT3 K663Q mutant (V592 to Y969 residues) expressed in bacterial expression system assessed as residual binding level at 10 uM by Kinomescan method relative to control
[9] = biological target: Homeodomain-interacting protein kinase 3 (Homo sapiens) (UniProt Q9H422); assay: Binding affinity to wild-type human partial length HIPK3 (M153 to N562 residues) expressed in mammalian expression system assessed as residual binding level at 10 uM by Kinomescan method relative to control
[10] = biological target: Inhibitor of nuclear factor kappa-B kinase subunit alpha (Homo sapiens) (UniProt O15111); assay: Binding affinity to wild-type human full length IKK-alpha (M1 to E745 residues) expressed in mammalian expression system assessed as residual binding level at 10 uM by Kinomescan method relative to control
[11] = biological target: Tyrosine-protein kinase Mer (Homo sapiens) (UniProt Q12866); assay: Binding affinity to wild-type human partial length MERTK (R557 to L884 residues) expressed in bacterial expression system assessed as residual binding level at 10 uM by Kinomescan method relative to control
[12] = biological target: Serine/threonine-protein kinase PAK 4 (Homo sapiens) (UniProt O96013); assay: Binding affinity to wild-type human partial length PAK4 (Q144 to R438 residues) expressed in bacterial expression system assessed as residual binding level at 10 uM by Kinomescan method relative to control
[13] = biological target: Platelet-derived growth factor receptor alpha (Homo sapiens) (UniProt P16234); assay: Binding affinity to wild-type human partial length PDGFRA (V575 to D1002 residues) expressed in mammalian expression system assessed as residual binding level at 10 uM by Kinomescan method relative to control
[14] = test system: Phosphatidylinositol 4,5-bisphosphate 3-kinase catalytic subunit alpha isoform (Homo sapiens), P42336 [E542K]; assay: Binding affinity to human partial length PIK3CA E542K mutant (R108 to N1068 residues) expressed in mammalian expression system assessed as residual binding level at 10 uM by Kinomescan method relative to control
[15] = biological target: cAMP-dependent protein kinase catalytic subunit alpha (Homo sapiens) (UniProt P17612); assay: Binding affinity to wild-type human partial length PKAC-alpha (G10 to F351 residues) expressed in bacterial expression system assessed as residual binding level at 10 uM by Kinomescan method relative to control
[16] = biological target: Serine/threonine-protein kinase PLK1 (Homo sapiens) (UniProt P53350); assay: Binding affinity to wild-type human partial length PLK1 (A33 to F325 residues) expressed in mammalian expression system assessed as residual binding level at 10 uM by Kinomescan method relative to control
[17] = biological target: Serine/threonine-protein kinase D1 (Homo sapiens) (UniProt Q15139); assay: Binding affinity to wild-type human partial length PRKD1 (G551 to E870 residues) expressed in bacterial expression system assessed as residual binding level at 10 uM by Kinomescan method relative to control
[18] = test system: Proto-oncogene tyrosine-protein kinase receptor Ret (Homo sapiens), P07949 [V804M]; assay: Binding affinity to human partial length RET V804M mutant (E713 to D1014 residues) expressed in bacterial expression system assessed as residual binding level at 10 uM by Kinomescan method relative to control
[19] = biological target: Serine/threonine-protein kinase SIK1 (Homo sapiens) (UniProt P57059); assay: Binding affinity to wild-type human partial length SIK (M1 to Y304 residues) expressed in bacterial expression system assessed as residual binding level at 10 uM by Kinomescan method relative to control
[20] = biological target: NUAK family SNF1-like kinase 2 (Homo sapiens) (UniProt Q9H093); assay: Binding affinity to wild-type human partial length SNARK (P22 to A333 residues) expressed in mammalian expression system assessed as residual binding level at 10 uM by Kinomescan method relative to control
[21] = biological target: Serine/threonine-protein kinase TAO3 (Homo sapiens) (UniProt Q9H2K8); assay: Binding affinity to wild-type human partial length TAOK3 (M1 to T316 residues) expressed in mammalian expression system assessed as residual binding level at 10 uM by Kinomescan method relative to control
[22] = biological target: Tyrosine-protein kinase TXK (Homo sapiens) (UniProt P42681); assay: Binding affinity to wild-type human partial length TXK (L238 to W527 residues) expressed in bacterial expression system assessed as residual binding level at 10 uM by Kinomescan method relative to control
[23] = biological target: Non-receptor tyrosine-protein kinase TYK2 (Homo sapiens) (UniProt P29597); assay: Binding affinity to wild-type human partial length TYK2 JH1 catalytic domain (V877 to C1187 residues) expressed in mammalian expression system assessed as residual binding level at 10 uM by Kinomescan method relative to control
MDR1 = assay: in vitro; settings: dog, MDCK-MDR1
Description: Efflux ratio of apparent permeability from basolateral to apical over apical to basolateral side in MDCK2-MDR1 cells by HPLC analysis

Sequence of Phosphatidylinositol 4,5-bisphosphate 3-kinase catalytic subunit alpha isoform (Homo sapiens), P42336 [E542K] (P42336 whole entry E542K, the tested form may be a part, canonical isoform): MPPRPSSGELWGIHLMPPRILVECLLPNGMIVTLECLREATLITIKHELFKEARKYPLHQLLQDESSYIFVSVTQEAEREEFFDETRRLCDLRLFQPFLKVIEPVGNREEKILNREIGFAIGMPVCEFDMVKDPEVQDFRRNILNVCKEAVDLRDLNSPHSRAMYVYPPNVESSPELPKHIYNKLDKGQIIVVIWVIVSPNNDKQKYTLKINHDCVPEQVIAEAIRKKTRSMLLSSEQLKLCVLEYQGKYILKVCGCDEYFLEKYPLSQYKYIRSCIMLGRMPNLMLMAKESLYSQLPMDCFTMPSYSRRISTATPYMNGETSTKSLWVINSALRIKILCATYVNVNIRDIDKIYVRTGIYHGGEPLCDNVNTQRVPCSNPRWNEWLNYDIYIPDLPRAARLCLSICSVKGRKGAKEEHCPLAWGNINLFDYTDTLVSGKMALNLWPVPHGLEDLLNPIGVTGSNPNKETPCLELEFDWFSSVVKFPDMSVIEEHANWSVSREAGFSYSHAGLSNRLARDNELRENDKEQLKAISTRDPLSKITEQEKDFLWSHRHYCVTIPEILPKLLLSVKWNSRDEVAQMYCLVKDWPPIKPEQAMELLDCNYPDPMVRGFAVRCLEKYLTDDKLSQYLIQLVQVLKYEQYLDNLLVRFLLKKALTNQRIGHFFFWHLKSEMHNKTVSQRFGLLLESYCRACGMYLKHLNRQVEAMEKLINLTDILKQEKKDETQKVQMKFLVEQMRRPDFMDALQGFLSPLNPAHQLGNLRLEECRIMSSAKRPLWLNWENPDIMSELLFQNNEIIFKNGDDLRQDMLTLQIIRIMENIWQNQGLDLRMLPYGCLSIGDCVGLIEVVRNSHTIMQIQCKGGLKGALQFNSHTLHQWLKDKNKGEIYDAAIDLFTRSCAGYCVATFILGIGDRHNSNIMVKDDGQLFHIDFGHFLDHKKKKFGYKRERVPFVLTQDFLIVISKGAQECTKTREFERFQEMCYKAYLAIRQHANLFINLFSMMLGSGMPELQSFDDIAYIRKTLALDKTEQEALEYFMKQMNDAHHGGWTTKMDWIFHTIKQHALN
Sequence of Serine/threonine-protein kinase SIK1 (Homo sapiens) (P57059 whole entry, the tested form may be a part): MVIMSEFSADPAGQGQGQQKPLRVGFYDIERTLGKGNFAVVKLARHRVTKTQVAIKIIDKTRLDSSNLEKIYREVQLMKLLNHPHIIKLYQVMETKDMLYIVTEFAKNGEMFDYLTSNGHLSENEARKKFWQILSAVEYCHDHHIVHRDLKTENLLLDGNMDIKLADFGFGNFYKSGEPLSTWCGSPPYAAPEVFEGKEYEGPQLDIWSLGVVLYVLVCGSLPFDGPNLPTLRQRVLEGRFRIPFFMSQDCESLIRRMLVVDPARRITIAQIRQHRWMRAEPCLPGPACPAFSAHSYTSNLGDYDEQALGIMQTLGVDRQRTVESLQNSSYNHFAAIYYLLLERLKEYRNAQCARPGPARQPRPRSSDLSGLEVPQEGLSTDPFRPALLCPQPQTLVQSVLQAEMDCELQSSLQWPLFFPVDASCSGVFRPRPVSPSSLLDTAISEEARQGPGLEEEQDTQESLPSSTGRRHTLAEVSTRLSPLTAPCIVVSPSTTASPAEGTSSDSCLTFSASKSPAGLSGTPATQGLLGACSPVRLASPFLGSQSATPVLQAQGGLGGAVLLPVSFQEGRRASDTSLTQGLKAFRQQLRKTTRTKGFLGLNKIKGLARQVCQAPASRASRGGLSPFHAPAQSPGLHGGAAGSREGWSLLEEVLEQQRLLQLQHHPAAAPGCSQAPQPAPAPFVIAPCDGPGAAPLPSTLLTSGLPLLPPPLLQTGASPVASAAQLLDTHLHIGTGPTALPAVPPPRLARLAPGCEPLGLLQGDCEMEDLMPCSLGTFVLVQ
Sequence of Platelet-derived growth factor receptor alpha (Homo sapiens) (P16234 whole entry, the tested form may be a part, canonical isoform): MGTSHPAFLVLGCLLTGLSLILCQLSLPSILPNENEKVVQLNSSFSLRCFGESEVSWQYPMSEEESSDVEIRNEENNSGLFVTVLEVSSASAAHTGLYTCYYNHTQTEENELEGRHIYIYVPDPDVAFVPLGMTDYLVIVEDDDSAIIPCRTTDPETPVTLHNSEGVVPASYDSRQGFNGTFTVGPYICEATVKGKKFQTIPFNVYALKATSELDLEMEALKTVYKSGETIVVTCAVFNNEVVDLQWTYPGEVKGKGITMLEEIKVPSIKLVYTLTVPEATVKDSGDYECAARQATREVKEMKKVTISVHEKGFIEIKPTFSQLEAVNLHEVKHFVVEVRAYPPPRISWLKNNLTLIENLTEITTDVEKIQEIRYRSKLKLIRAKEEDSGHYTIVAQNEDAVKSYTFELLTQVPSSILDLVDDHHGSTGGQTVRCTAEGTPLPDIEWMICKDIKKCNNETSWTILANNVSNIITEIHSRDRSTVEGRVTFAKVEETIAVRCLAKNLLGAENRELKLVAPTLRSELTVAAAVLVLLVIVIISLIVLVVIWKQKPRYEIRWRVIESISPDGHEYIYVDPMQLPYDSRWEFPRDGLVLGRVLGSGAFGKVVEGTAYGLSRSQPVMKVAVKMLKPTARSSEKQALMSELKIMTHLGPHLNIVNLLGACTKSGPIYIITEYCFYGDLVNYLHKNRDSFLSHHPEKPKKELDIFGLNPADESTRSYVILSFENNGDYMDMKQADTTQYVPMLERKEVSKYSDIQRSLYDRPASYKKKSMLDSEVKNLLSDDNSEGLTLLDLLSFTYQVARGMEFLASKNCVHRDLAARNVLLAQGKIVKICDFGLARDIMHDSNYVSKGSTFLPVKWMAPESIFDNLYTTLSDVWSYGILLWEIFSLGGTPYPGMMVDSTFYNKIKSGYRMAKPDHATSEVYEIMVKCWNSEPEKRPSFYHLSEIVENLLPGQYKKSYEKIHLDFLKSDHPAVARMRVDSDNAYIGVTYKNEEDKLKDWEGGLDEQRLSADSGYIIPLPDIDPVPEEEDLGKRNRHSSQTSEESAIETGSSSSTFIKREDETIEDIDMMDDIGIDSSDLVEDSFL
Sequence of Serine/threonine-protein kinase PLK1 (Homo sapiens) (P53350 whole entry, the tested form may be a part): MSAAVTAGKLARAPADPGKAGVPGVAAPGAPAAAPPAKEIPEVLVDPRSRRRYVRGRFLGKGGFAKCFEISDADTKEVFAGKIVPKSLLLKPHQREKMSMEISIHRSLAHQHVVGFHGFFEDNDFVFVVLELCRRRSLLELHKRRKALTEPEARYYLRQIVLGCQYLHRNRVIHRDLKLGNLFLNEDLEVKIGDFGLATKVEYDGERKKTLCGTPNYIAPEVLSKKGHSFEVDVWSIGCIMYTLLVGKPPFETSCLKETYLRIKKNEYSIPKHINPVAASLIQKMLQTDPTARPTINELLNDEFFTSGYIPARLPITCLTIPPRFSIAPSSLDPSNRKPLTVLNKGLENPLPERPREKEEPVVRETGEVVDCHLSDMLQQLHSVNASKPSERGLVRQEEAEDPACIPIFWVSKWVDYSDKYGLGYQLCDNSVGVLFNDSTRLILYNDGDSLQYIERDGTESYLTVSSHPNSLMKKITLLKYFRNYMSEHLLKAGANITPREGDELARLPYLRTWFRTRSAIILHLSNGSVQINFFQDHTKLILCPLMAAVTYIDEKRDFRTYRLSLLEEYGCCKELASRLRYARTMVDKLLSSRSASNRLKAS
Sequence of Mitogen-activated protein kinase 7 (Homo sapiens) (Q13164 2-816 limits assumed): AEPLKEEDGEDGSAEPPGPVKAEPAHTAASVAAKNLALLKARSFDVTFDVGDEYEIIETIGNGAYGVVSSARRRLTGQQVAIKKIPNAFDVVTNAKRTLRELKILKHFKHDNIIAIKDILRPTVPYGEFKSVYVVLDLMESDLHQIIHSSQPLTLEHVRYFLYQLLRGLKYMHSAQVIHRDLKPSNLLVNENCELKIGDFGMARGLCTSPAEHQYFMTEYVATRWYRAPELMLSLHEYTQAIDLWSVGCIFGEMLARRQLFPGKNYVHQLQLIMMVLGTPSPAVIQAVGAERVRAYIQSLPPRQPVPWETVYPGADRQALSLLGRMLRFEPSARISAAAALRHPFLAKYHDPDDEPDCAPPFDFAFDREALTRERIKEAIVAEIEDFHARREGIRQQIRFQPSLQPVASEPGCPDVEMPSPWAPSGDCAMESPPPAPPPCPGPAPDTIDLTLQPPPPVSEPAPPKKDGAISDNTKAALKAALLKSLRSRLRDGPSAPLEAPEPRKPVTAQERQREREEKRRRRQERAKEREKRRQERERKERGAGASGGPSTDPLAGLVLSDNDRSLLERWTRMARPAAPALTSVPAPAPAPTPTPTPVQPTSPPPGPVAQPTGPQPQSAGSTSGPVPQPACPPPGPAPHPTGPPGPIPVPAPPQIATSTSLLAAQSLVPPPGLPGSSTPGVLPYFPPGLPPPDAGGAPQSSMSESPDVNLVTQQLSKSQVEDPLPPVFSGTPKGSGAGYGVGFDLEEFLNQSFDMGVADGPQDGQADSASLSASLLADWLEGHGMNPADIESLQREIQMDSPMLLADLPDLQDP
Sequence of Serine/threonine-protein kinase PAK 4 (Homo sapiens) (O96013 whole entry, looked up, the tested form may be a part): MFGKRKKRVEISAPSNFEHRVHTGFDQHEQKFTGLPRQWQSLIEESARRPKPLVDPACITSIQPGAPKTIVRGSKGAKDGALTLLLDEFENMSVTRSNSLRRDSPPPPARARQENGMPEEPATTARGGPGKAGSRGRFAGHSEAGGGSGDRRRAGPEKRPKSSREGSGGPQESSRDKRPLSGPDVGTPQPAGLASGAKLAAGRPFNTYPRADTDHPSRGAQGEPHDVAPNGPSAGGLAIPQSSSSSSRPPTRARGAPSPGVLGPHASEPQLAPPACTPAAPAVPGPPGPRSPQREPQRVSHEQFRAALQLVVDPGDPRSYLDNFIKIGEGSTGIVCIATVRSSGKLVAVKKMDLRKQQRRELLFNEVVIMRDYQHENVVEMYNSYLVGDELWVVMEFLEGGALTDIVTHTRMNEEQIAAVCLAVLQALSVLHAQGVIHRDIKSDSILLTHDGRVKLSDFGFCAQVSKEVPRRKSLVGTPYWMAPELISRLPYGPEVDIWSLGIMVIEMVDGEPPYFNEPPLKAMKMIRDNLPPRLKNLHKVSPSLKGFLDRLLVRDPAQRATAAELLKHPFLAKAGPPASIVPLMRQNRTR

Structure (SMILES): O=C(Nc1cc(-c2cn(CCNc3c4c(nc5ccccc35)CCCC4)nn2)ccn1)Nc1cccc2c1C1CCCCN1C2=O (racemic)
- IC50 (PC-3): 5 µM
- Activity [1]: 1.1%
- Activity [2]: 0.95%
- Activity [3]: 24%
- Activity [4]: 100%
- Activity [5]: 80%
- Activity [6]: 100%
- Activity [7]: 57%
- Activity [8]: 0.8%
- Activity [9]: 99%
- Activity [10]: 53%
- Activity [11]: 12%
- Activity [12]: 14%
- Activity [13]: 22%
- Activity [14]: 72%
- Activity [15]: 100%
- Activity [16]: 81%
- Activity [17]: 24%
- Activity [18]: 13%
- Activity [19]: 73%
- Activity [20]: 1.9%
- Activity [21]: 3.8%
- Activity [22]: 95%
- Activity [23]: 39%
- efflux ratio (MDR1): 1.51
